Patent publication US20180243421A1, “IMMUNOSTIMULATING AGENT” (AJINOMOTO CO., INC., priority 2015, published 2018)

Experiments:
[1] = test system: IL-4; assay: Th2 response: IL-4 production from lymph node cells of immunized mice restimulated with OVA; type: in vivo, BALB/c mice; settings: Example 10; s.c. OVA 10 μg + 0.256 μmol in 5% αCD saline (Addavax 1:1); groin lymph node ten days later; 0.1-100 μg OVA, 40 hr, ELISA
Protocol: (§1) Ten days later, groin lymph node was collected from all mice of the above-mentioned (1) to (4), lymph node cells were isolated and cultured in 10% FBS-containing RPMI1640 medium. Thereto was added 0.1 μg, 1 μg, 10 μg, 100 μg of OVA, respectively, 40 hr later, cell supernatant was recovered, and IFN-γ and IL-4 in the supernatant were measured by ELISA.

[2] = test system: IFN-γ; assay: Th1 response: IFN-γ production from lymph node cells of immunized mice restimulated with OVA; type: in vivo, BALB/c mice; settings: Example 10; s.c. OVA 10 μg + 0.256 μmol in 5% αCD saline (Addavax 1:1); groin lymph node ten days later; 0.1-100 μg OVA, 40 hr, ELISA
Protocol: as §1

[3] = test system: anti-OVA-specific IgG1 subclass antibody; assay: Adjuvant activity: anti-OVA-specific IgG1 subclass antibody in serum after secondary immunization (Examples 1, 5, 7, 8; ELISA absorbance); type: in vivo, BALB/c mice; settings: Example 7
Protocol: Two weeks from the secondary immunization, the whole blood was extracted under anesthesia, and the obtained serum sample was measured for anti-OVA-specific IgG1 subclass antibody.
A method for measurement of the anti-OVA-specific IgG1 subclass antibody in Example 1, and the following Examples 5, 7 and 8 is as follows.
Measurement Method of anti-OVA-specific IgG1 Subclass Antibody
To a 96 well plate was added 5 μg/ml OVA at 100 μl/well, and the mixture was incubated at 4° C. overnight. After incubation, the mixture was washed three times with 200 μl of PBS-T (PBS+0.05%(v/v) Tween 20) per well, and blocked with 100 μl of 5% FCS/PBS solution per well at room temperature for 1 to 2 hr. Thereafter, the mixture was washed three times with PBS-T (200 μl/well), a diluted serum sample (100 μl/well) or the same amount of 5% FCS/PBS solution as a control was added, and the mixture was incubated at 37° C. for 1 hr. Thereafter, the mixture was washed five times with PBS-T (200 μl/well), a diluted biotinylated anti-mouse IgG1 antibody (100 μl/well) was added, and the mixture was incubated at 37° C. for 45 min. Thereafter, the mixture was washed five times with PBS-T (200 μl/well), a diluted anti-biotin-HRP antibody was added (100 μl/well), and the mixture was incubated at 37° C. for another 30 min. Thereafter, the mixture was washed five times with PBS-T (200 μl/well), TMB substrate solution was added (100 μl/well), and the mixture was incubated at room temperature for 10 to 15 min. Thereafter, a reaction quenching liquid (2N sulfuric acid solution) was added (50 μl/well) to discontinue a color developing reaction, and the absorbance (OD Value=450 nm) was measured by a microplate reader.

[4] = test system: anti-OVA-specific IgE antibody; settings: mouse, in vivo
Protocol: The serum sample obtained in Example 1 was measured for an anti-OVA-specific IgE antibody. The measurement method of the anti-OVA-specific IgE antibody in Example 3 and Examples 6, 9 is as follows.
Measurement Method of anti-OVA-specific IgE Antibody
DS mouse IgE ELISA (OVA) kit manufactured by DS Pharma Biomedical Co., Ltd. was used. The protocol is briefly shown below.
The serum sample and a standard reagent for drawing an analytical curve are diluted with a buffer and, after stirring, left standing at room temperature for 10 min. The sample and the standard solution are added to a plate bound with an IgE capture antibody in advance and, after stirring, the mixture is left standing at room temperature for 60 min. The mixture is washed three times with wash, HRP-labeled OVA is added, and the mixture is left standing at room temperature for 30 min. The mixture is washed three times with wash, a substrate solution is added, and the mixture is left standing in dark at room temperature for 30 min. A reaction quenching liquid is added, the mixture is stirred, and the absorbance (OD Value=450 nm) is immediately measured.
This test was performed in the same manner as in Example 3 except that N^2-hexadecanoyl-L-arginine (SZ61), N-hexadecanoylagmatine (SZ62), N^2-hexadecanoyl-L-arginine methyl ester hydrochloride (SZ63), N^2-octadecanoyl-L-glutamine tert-butyl ester (SZ64), and N^2-octadecanoyl-L-glutamine (SZ65) were used.
This test was performed in the same manner as in Example 6 except that N-hexadecanoylagmatine (SZ62), N^2-octadecanoyl-L-glutamine tert-butyl ester (SZ64), N-docosanoyl-L-leucine methyl ester (SZ70), and N-docosanoyl-L-phenylalanine methyl ester (SZ71) were used and a positive control adjuvant Addavax™ (InvivoGen) administration group was formed.
(§2) The allergy inducing activity test was performed in the same manner as in Example 3 except that Addavax™, N-(2-octadecyleicosanoyl)-L-leucine methyl ester (SZ86), N-hexadecanoyl-L-leucinamide (SZ90), N^2-hexadecanoyl-N^1,N^1-diethyl-L-leucinamide (SZ92), N^2-hexadecanoyl-L-arginine hexyl ester hydrochloride (SZ99) and N^2-docosanoyl-N^1,N^1-diethyl-L-glutamic acid 1-amide (SZ106) were used.
as §2, with “N-hexadecanoyl-L-leucine” for “N^2-hexadecanoyl-L-arginine”, “(SZ97),” for “hydrochloride (SZ99) and”, “(SZ106) and N-docosanoylagmatine hydrochloride (SZ108)” for “(SZ106)”
8-Week-old female BALB/c mice were divided into groups (N=6), and each group was primarily immunized by dorsal-subcutaneous administration of (1) ovalbumin (OVA) (5 μg) dissolved in saline as an antigen (OVA single administration group), (2) OVA (10 μg) and aluminum hydroxide salt dissolved in saline (Alum administration group), (3) OVA 10 μg and Addavax™ (mixed with saline at 1:1) dissolved in saline (Addavax™ administration group), (4) OVA 10 μg and CpG 5 μg dissolved in saline (CpG administration group), (5) OVA 10 μg and MPL 5 μg dissolved in saline (MPL administration group), (6) OVA (5 μg) and SZ62 (0.256 μmol) dissolved or dispersed in 5% αCD-added saline (SZ62 administration group), (7) OVA (5 μg), SZ62 (0.256 μmol) and CpG 5 μg dissolved or dispersed in 5% αCD-added saline (SZ62+CpG administration group), (8) OVA 10 μg, Addavax™ (mixed with saline at 1:1) and CpG 5 μg dissolved in saline (Addavax™+CpG administration group), (9) OVA (5 μg), SZ62 (0.256 μmol) and MPL 5 μg dissolved or dispersed in 5% αCD-added saline (SZ62+MPL administration group), (10) OVA (10 μg), aluminum hydroxide salt (Alum) and MPL 5 μg dissolved in saline (Alum+MPL administration group), each per mouse. One week later, the secondary immunization was carried out by dorsal-subcutaneous administration of solutions or dispersions similar to those of the above-mentioned (1) to (10) again.

[5] = test system: anti-OVA-specific IgG1 subclass antibody; assay: Adjuvant activity after primary immunization: anti-OVA-specific IgG1 subclass antibody in serum (Examples 13-18); type: in vivo, BALB/c mice; settings: Example 18; OVA 5 μg + 0.256 μmol in 5% αCD saline s.c.; serum after 12 days
Protocol: 8-Week-old female BALB/c mice were divided into groups (N=6), and each group was primarily immunized by dorsal-subcutaneous administration of (1) ovalbumin (OVA) (5 μg) dissolved in saline as an antigen (OVA single administration group), (2) OVA (5 μg) and SZ83 (0.256 μmol) dissolved or dispersed in 5% αCD-added saline (SZ83 administration group), (3) OVA (5 μg) and SZ84 (0.256 μmol) dissolved or dispersed in 5% αCD-added saline (SZ84 administration group), (4) OVA (5 μg) and SZ86 (0.256 μmol) dissolved or dispersed in 5% αCD-added saline (SZ86 administration group), (5) OVA (5 μg) and SZ89 (0.256 μmol) dissolved or dispersed in 5% αCD-added saline (SZ89 administration group), (6) OVA (5 μg) and SZ90 (0.256 μmol) dissolved or dispersed in 5% αCD-added saline (SZ90 administration group), each per mouse. After 12 days, blood samples were collected under anesthesia, and the obtained serum samples were subjected to the measurement of an anti-OVA-specific IgG1 subclass antibody.
Measurement Method of Concentration of anti-OVA-specific IgG1 Subclass Antibody and anti-OVA-specific IgG2a Subclass Antibody
To a 96 well plate was added 5 μg/ml OVA at 100 μl/well, and the mixture was incubated at 4° C. overnight. After incubation, the mixture was washed three times with 200 μl of PBS-T (PBS+0.05% (v/v) Tween 20) per well, and blocked with 100 μl of 5% FCS/PBS solution per well at room temperature for 1 to for 2 hr. Thereafter, the mixture was washed three times with PBS-T (200 μl/well), a diluted serum sample (100 μl/well) or the same amount of 5% FCS/PBS solution as a control was added, to and the mixture was incubated at 37° C. for 1 hr. To calculate concentration of the antibody, the standard of an anti-OVA-specific IgG1 subclass antibody diluted with 2% FCS/PBS solution was added at 100 ng/ml, 50 ng/ml, 25 ng/ml, 12.5 ng/ml, 6.25 ng/ml, 3.125 ng/ml, 1.56 ng/ml, 0.781 ng/ml, 0.391 ng/ml, 0.195 ng/ml, 0.098 ng/ml, 0 ng/ml, per 1 well. When an anti-OVA-specific IgG2a subclass antibody was measured, the standard of an anti-OVA-specific IgG2a subclass antibody was added at 50 ng/ml, 25 ng/ml, 12,5 ng/ml, 6.25 ng/ml, 3.125 ng/ml, 1.56 ng/ml, 0.781 ng/ml, 0.391 ng/ml, 0.195 ng/ml, 0.098 ng/ml, 0.049 ng/ml, 0 ng/ml, per 1 well. […] Thereafter, the mixture was washed five times with PBS-T (200 μl/well), a diluted anti-biotin-HRP antibody was added (100 μl/well), and the mixture was incubated at 37° C. for another 30 min. Thereafter, the mixture was washed five times with PBS-T (200 μl/well), TMB substrate solution was added (100 μl/well), and the mixture was incubated at room temperature for 10- for 15 min. Thereafter, a reaction quenching liquid (2N sulfuric acid solution) was added (50 μl/well) to discontinue a color developing reaction, and the absorbance (OD Value=450 nm) was measured by a microplate reader. A standard curve was drawn from the measured OD values, and the concentration was calculated.
8-Week-old female BALB/c mice were divided into groups (N=6), and each group was primarily immunized by dorsal-subcutaneous administration of (1) ovalbumin (OVA) (5 μg) dissolved in saline as an antigen (OVA single administration group), (2) OVA (5 μg) and SZ92 (0.256 μmol) dissolved or dispersed in 5% αCD-added saline (SZ92 administration group), (3) OVA (5 μg) and SZ94 (0.256 μmol) dissolved or dispersed in 5% αCD-added saline (SZ94 administration group), (4) OVA (5 μg) and SZ95 (0.256 μmol) dissolved or dispersed in 5% αCD-added saline (SZ95 administration group), (5) OVA (5 μg) and SZ96 (0.256 μmol) dissolved or dispersed in 5% αCD-added saline (SZ96 administration group), each per mouse. After 12 days, blood samples were collected under anesthesia, and the obtained serum samples were subjected to the measurement of anti-OVA-specific IgG1 subclass antibody.

[6] = test system: anti-influenza IgA antibody; assay: Transnasal influenza vaccine adjuvant activity: anti-influenza IgA antibody in nasal cavity wash; type: in vivo, BALB/c mice; settings: Example 4, influenza HA vaccine 20 μl, SZ62 1 μg, Poly(I:C) 5 μg, two weeks from secondary immunization

## CCCCCCCCCCCCCCCCCCCCCC(=O)N[C@@H](CC(C)C)C(=O)OC [SZ70, N-docosanoyl-L-leucine methyl ester]
[1]
  IL-4 production from lymph node cells: did not show an increase
[2]
  IFN-γ production from lymph node cells: increased in an OVA volume dependent manner
[3]
  adjuvant activity (IgG1) compared with Alum: equivalent to or not less than that of Alum
[3]; same manner as Example 1, plus Addavax group
  anti-OVA-specific IgG1 subclass antibody production as compared to the OVA single administration group: significantly increased
[4]
  allergy inducing activity as compared to aluminum hydroxide gel adjuvant and Addavax: lower allergy inducing activity

## CCCCCCCCCCCCCCCCCCCCCC(=O)N[C@@H](CCCNC(=N)N)C(N)=O.Cl [SZ128, N^2-docosanoyl-L-arginine amide hydrochloride salt]
[5]
  anti-OVA-specific IgG1 subclass antibody production after primary immunization as compared to the OVA single administration group: significantly increased

## CCCCCCCCCCCCCCCCCCCCCC(=O)N[C@@H](CCCNC(=N)N)C(=O)N(CC)CC.Cl [SZ129, N^2-docosanoyl-N^1,N^1-diethyl-L-arginine amide hydrochloride salt]
[5]
  anti-OVA-specific IgG1 subclass antibody production after primary immunization as compared to the OVA single administration group: significantly increased

## CCCCCCOC(=O)[C@H](CCCNC(=N)N)NC(=O)CCCCC.Cl [SZ130, N^2-hexanoyl-L-arginine hexyl ester hydrochloride salt]
[5]
  anti-OVA-specific IgG1 subclass antibody production after primary immunization as compared to the OVA single administration group: tended to increase

## CCCCCCCCCCCCCCCC(=O)N[C@@H](CCC(=O)O)C(=O)OCCCCCC [SZ134, N-hexadecanoyl-L-glutamic acid hexyl ester]
[5]
  anti-OVA-specific IgG1 subclass antibody production after primary immunization as compared to the OVA single administration group: tended to increase

## CCCCCCCCCCCCCCCCCCCCCC(=O)N[C@@H](CCC(=O)O)C(=O)OCCCCCC [SZ135, N-docosanoyl-L-glutamic acid hexyl ester]
[5]
  anti-OVA-specific IgG1 subclass antibody production after primary immunization as compared to the OVA single administration group: tended to increase

## polyinosinic polycytidylic acid [Poly(I:C), reference compound]
[6]
  anti-influenza IgA antibody production in nasal cavity wash as compared to the influenza vaccine single administration group: a significant increase was not found
